One may read the EC50 as the concentration needed to bring the measured effect to its halfway point. The low end stands for an effect from little substance, the high end for a need for much substance.

We go through six compounds from ChEMBL document CHEMBL2364335, “Structure-activity relationship data for chemical series of achiral agonists of the ghrelin (growth hormone secretagogue) receptor (Supplementary Bioactivity Data for publication CHEMBL1140573)”.

The assay deals with Growth hormone secretagogue receptor type 1 (Homo sapiens, UniProt Q92847). Briefly: SUPPLEMENTARY: Agonist activity at GSHR by FLIPR assay. Same assay as CHEMBL941945. In kind it is functional.
Growth hormone secretagogue receptor type 1, sequence (Q92847 whole entry): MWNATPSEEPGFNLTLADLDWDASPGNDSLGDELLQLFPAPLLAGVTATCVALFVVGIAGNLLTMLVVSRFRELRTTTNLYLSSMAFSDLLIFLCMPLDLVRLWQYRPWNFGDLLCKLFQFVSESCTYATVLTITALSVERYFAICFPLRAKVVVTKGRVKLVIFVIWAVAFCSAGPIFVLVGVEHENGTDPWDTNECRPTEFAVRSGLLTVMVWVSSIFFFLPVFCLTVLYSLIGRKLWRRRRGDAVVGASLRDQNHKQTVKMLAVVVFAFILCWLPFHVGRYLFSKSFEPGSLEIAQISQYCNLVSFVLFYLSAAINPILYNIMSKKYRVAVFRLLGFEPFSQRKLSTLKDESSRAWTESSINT
`COc1ccc(N2C[C@@H](C)N[C@@H](C)C2)cc1NS(=O)(=O)c1ccc(-c2cccc(C)n2)cc1C` had an EC50 of 6.31 nM.

`COc1ccc(N2C[C@@H](C)N[C@@H](C)C2)cc1NS(=O)(=O)c1ccc(-c2ccsc2)cc1` showed an EC50 of 5.01 nM.

For the compound `COc1ccc(N2C[C@@H](C)N[C@@H](C)C2)cc1NS(=O)(=O)c1ccc(-c2ccc(C)o2)cc1Cl`, the EC50 is 0.316 nM.

With `C[C@@H]1CN(c2ccc(O)c(NS(=O)(=O)c3ccc(-c4ccccn4)s3)c2)C[C@H](C)N1`, the EC50 is 25.1 nM.

The compound `COc1ccc(N2C[C@@H](C)N[C@@H](C)C2)cc1NS(=O)(=O)c1ccc(-c2ccc(F)cc2F)cc1` had an EC50 of 100 nM.

Compound `COc1ccc(NS(=O)(=O)c2ccc(-c3cccs3)c(F)c2)cc1N1C[C@@H](C)N[C@@H](C)C1` gave an EC50 of 3.16 nM.
